Laboratory results taken from publication PMC11745148, “Identification of Cannabidiolic and Cannabigerolic Acids as MTDL AChE, BuChE, and BACE‐1 Inhibitors Against Alzheimer's Disease by In Silico, In Vitro, and In Vivo Studies” (Phytotherapy Research, 2024).
Like-named read-outs stand apart in the source and are kept apart here.

Tests used:
[1] = target: T1, Acetylcholinesterase from Electrophorus electricus AChE (Electrophorus electricus, UniProt O42275); test: Cholinesterase activity by the Elmann method, kinetic parameters and Ki on AChE; type: biochemical; settings: for inhibition type on AChE: increase in Km without affecting Vmax
T1 construct: purchased Sigma-Aldrich

[2] = target: T2, butirrylcholinesterase from equine serum BuChE (Equus caballus, UniProt P81908); test: Cholinesterase activity by the Elmann method, kinetic parameters and Ki on BuChE; type: biochemical; settings: for inhibition type on BuChE: decrease of Vmax without affecting Km
T2 construct: purchased Sigma-Aldrich; host or cells: equine serum

mouse BACE-1 = target: T3, mouse BACE-1 (Mus musculus, UniProt P56818); test: BACE-1 activity, fluorimetric method; type: biochemical; settings: for IC50: mouse BACE-1, pH 4.5, semilogarithmic plot
T3 construct: purchased Life Technology

[3] = target: T4, Human β-amyloid peptide (1–40) (Homo sapiens, UniProt P05067); test: Aβ 1–40 self-aggregation inhibition assay (thioflavine T); type: biochemical; settings: 96 μM peptide, 37°C, 24 h
T4 construct: Human β‐amyloid peptide (1–40, cat. ab120479); purchased Abcam ab120479

GPR109A (HCA2) = target: T5, GPR109A (HCA2) (Homo sapiens, UniProt Q8TDS4); test: β-arrestin recruitment assay on GPR109A (HCA2-Tango, HTLA-HEK293 cells); type: cell-based; settings: HTLA-HEK293 cells expressing HCA2; different doses; 20 h; vs vehicle
T5 construct: Tango fusion module; host or cells: HTLA-HEK293 cells stably expressing β-arrestin2-TEV and tTA-driven luciferase

sAβ-injected mice [4] = test: Tail suspension test in sAβ-induced AD mouse model; type: in vivo, CD1 male mice; settings: 10 mg/kg i.p. repeated, days 3 to 10 after sAβ; sAβ/veh 74.250 ± 7.465; mean ± SEM
[5] = tested on: LEC-DG pathway (hippocampus) of sAβ-injected mice; test: In vivo LTP recording in the LEC-DG pathway of sAβ-injected mice; set-up: species or system CD1 male mice; settings: 10 mg/kg i.p. repeated; for fEPSP slope after TBS: 30–60 min after TBS, sAβ/veh 110.92 ± 0.86; for fEPSP slope after TBS / fEPSP amplitude 30–60 min after TBS: relative to baseline; for fEPSP amplitude 30–60 min after TBS: sAβ/veh 110.5 ± 1.73
TRPM7 [6] = test: Trpm7 mRNA expression in hippocampus by qPCR; type: in vivo, mouse; settings: treatment day 3 to 10 postinduction; upregulated by sAβ
PPARα/γ = settings: ref D'Aniello et al. [2019]; cited from earlier work
TRPM7 [7] = settings: ref Suzuki et al. [2023]; cited from earlier work
[8] = especially in a tween-based vehicle; ref Anderson et al. [2019]; cited from earlier work
sAβ-injected mice [9] = test: Novel object recognition test in sAβ-induced AD mouse model; type: in vivo, CD1 male mice; settings: 10 mg/kg i.p. repeated, days 3 to 10 after sAβ; test at 1 h; sAβ/veh −0.115 ± 0.030; mean ± SEM
[10] = target: T6, cannabinoid CB2 receptor (CNR2-Tango) (Homo sapiens, UniProt P34972); test: β-arrestin recruitment assay, positive control CNR2-Tango; type: cell-based
T6 construct: Tango fusion module; expressed in transfected cells; host or cells: HTLA-HEK293 cells

[11] = AChE, inhibitor 1.25 µM, Lineweaver-Burk equation, from increase of Km, mean Ki in μM, read-out: Ki LB
[12] = AChE, inhibitor 1.25 µM, Michaelis-Menten interpolation, from increase of Km, mean Ki in μM, read-out: Ki MM
[13] = AChE, inhibitor 2.50 µM, Lineweaver-Burk equation, from increase of Km, mean Ki in μM, read-out: Ki LB
[14] = AChE, inhibitor 3.00 µM, Lineweaver-Burk equation, from increase of Km, mean Ki in μM, read-out: Ki LB
[15] = AChE, inhibitor 3.00 µM, Michaelis-Menten interpolation, from increase of Km, mean Ki in μM, read-out: Ki MM
[16] = mean over experiments, n = 6 CBDA, n = 7 CBGA, competitive inhibition, read-out: calculated Ki, AChE
[17] = BuChE, Exp. 1, inhibitor 10 µM, Lineweaver-Burk equation, from decrease of Vmax, mean Ki in μM, read-out: Ki LB
[18] = BuChE, Exp. 1, inhibitor 10 µM, Lineweaver-Burk equation, no inhibitor 0.295
[19] = BuChE, Exp. 1, inhibitor 10 µM, Michaelis-Menten interpolation, from decrease of Vmax, mean Ki in μM, read-out: Ki MM
[20] = BuChE, Exp. 1, inhibitor 10 µM, Michaelis-Menten interpolation, no inhibitor 0.299
[21] = BuChE, Exp. 2, inhibitor 2.66 µM, Lineweaver-Burk equation, from decrease of Vmax, mean Ki in μM, read-out: Ki LB
[22] = BuChE, Exp. 2, inhibitor 2.66 µM, Lineweaver-Burk equation, no inhibitor 0.220
[23] = BuChE, Exp. 2, inhibitor 2.66 µM, Michaelis-Menten interpolation, from decrease of Vmax, mean Ki in μM, read-out: Ki MM
[24] = mean over experiments, n = 4, noncompetitive inhibition, read-out: calculated Ki, BuChE

T2 sequence (P81908 whole entry): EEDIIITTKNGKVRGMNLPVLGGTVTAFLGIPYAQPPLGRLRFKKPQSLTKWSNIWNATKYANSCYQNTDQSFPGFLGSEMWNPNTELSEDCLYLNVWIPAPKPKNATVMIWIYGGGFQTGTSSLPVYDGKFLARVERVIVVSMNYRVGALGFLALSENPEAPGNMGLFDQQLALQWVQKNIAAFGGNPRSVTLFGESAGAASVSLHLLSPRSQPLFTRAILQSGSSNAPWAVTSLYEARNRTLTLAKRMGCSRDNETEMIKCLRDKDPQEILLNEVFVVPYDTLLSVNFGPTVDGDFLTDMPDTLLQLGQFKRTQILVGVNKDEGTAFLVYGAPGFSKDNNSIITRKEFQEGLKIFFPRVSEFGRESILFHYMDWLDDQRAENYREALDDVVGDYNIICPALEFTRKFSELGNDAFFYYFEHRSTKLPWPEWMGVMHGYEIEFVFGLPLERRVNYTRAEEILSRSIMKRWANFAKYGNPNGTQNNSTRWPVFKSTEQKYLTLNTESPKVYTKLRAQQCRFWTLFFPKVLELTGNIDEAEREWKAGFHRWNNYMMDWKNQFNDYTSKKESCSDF
T3 sequence (P56818 46-501): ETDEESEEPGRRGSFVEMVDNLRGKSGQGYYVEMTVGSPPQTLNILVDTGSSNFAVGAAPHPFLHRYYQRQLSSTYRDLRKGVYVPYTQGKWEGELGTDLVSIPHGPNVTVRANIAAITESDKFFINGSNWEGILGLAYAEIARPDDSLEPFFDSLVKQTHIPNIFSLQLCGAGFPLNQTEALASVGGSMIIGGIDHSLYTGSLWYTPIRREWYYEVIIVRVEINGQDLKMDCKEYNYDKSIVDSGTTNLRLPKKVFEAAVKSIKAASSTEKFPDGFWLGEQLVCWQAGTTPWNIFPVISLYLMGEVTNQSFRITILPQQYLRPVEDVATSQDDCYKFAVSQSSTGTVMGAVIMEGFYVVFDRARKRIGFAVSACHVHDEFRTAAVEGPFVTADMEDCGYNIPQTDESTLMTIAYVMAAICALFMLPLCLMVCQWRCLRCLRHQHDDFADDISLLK
T1 sequence (O42275 24-633): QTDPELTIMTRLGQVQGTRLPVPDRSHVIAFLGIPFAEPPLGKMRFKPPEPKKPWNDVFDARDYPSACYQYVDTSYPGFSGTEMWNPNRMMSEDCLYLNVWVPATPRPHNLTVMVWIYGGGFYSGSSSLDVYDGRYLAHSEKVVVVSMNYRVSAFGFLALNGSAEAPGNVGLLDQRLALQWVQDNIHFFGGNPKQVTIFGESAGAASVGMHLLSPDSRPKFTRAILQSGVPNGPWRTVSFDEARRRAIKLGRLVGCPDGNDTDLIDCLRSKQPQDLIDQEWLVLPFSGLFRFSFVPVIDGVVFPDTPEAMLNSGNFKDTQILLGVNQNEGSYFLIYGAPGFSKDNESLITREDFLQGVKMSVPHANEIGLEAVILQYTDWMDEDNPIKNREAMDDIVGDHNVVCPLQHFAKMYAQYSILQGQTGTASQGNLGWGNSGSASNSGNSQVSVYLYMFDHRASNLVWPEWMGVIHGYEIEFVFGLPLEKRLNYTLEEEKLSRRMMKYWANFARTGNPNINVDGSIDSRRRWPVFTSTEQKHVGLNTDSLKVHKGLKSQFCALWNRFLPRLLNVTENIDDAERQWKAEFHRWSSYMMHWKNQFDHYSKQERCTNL
T5 sequence (Q8TDS4 whole entry, the tested form may be a part): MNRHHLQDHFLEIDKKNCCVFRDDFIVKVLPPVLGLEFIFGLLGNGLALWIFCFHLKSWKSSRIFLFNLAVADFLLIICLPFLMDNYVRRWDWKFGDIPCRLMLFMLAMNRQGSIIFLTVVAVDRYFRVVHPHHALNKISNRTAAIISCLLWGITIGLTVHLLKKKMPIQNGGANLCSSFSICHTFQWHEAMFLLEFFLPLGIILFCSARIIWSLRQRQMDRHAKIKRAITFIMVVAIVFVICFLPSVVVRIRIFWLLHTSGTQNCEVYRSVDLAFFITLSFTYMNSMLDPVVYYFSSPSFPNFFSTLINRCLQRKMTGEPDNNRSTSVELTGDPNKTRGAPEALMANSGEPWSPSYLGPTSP
T4 sequence (P05067 672-711 limits assumed): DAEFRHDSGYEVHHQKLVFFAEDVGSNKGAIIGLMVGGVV
T6 sequence (P34972 whole entry, the tested form may be a part): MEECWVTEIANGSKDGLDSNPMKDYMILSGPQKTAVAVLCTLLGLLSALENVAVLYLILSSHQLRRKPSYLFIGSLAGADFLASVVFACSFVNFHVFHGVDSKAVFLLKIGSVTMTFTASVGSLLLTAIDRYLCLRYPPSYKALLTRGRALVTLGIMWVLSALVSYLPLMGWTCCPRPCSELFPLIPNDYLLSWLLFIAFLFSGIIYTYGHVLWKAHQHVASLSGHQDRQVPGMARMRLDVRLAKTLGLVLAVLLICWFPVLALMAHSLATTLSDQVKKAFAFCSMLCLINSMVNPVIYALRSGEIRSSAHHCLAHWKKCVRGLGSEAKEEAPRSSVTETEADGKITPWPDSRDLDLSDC

| SMILES | Ki [1, 11] | Ki [1, 12] | Ki [1, 13] | Ki [1, 14] | Ki [1, 15] | inhibition type on AChE [1] | Ki [1, 16] | Ki [2, 17] | Vmax LB [2, 18] | Ki [2, 19] | Vmax MM [2, 20] | Ki [2, 21] | Vmax LB [2, 22] | Ki [2, 23] | inhibition type on BuChE [2] | Ki [2, 24] | IC50 (mouse BACE-1) | IC50 [3] | β-arrestin recruitment / activation of GPR109A (GPR109A (HCA2)) | immobility in tail suspension test (sAβ-injected mice [4]) | further results |
| --- | --- | --- | --- | --- | --- | --- | --- | --- | --- | --- | --- | --- | --- | --- | --- | --- | --- | --- | --- | --- | --- |
| C=C(C)[C@@H]1CCC(C)=C[C@H]1c1c(O)cc(CCCCC)c(C(=O)O)c1O [CBDA, cannabidiolic acid] | 55 µM | 32.1 µM | 10.5 µM | 10.6 µM | 3.4 µM | competitive inhibitors | 7.9 ± 4.3 µM | 6.1 µM | 0.112 | 6.6 µM | 0.119 | 7.5 µM | 0.162 | 6.4 µM | noncompetitive inhibitors | 6.7 ± 0.6 µM | 6.1 ± 0.2 µM | 57.5 ± 0.8 µM | no recruitment of β‐arrestin and no direct receptor activation | 64.000 ± 12.523 s | Ki ([1]; AChE, inhibitor 1.75 µM, Lineweaver-Burk equation, from increase of Km, mean Ki in μM, read-out: Ki LB): 4.2 µM; Ki ([1]; AChE, inhibitor 1.75 µM, Michaelis-Menten interpolation, from increase of Km, mean Ki in μM, read-out: Ki MM): 13.9 µM; fEPSP slope after TBS [5]: 157.46 ± 14.5%; fEPSP amplitude 0–15 min (baseline) [5]: 99.97 ± 0.024%; fEPSP slope 0–15 min (baseline) [5]: 99.95 ± 0.27%; fEPSP amplitude 30–60 min after TBS [5]: 132.08 ± 2.83%; Trpm7 expression in hippocampus (TRPM7 [6]): reverted to the basal level; activity on PPARα/γ (PPARα/γ): dual PPARα/γ agonists; activity on TRPM7 (TRPM7 [7]): inhibitors of TRPM7; blood–brain barrier crossing [8]: can cross the blood–brain barrier |
| CCCCCc1cc(O)c(C/C=C(\C)CCC=C(C)C)c(O)c1C(=O)O [CBGA, cannabigerolic acid] | 13.5 µM | 9.1 µM | 9.6 µM | 6.5 µM | 8.1 µM | competitive inhibitors | 10.5 ± 2.9 µM | 39.2 µM | 0.235 | 26 µM | 0.216 | 14.1 µM | 0.185 | 14 µM | noncompetitive inhibitors | 23.3 ± 12 µM | 1.4 ± 0.1 µM | 47.7 ± 2.1 µM | no recruitment of β‐arrestin and no direct receptor activation | 20.500 ± 6.764 s | Ki ([1]; AChE, inhibitor 2.50 µM, Michaelis-Menten interpolation, from increase of Km, mean Ki in μM, read-out: Ki MM): 12.2 µM; Ki ([1]; AChE, inhibitor 3.75 µM, Lineweaver-Burk equation, from increase of Km, mean Ki in μM, read-out: Ki LB): 14.4 µM; Ki ([1]; AChE, inhibitor 3.75 µM, Michaelis-Menten interpolation, from increase of Km, mean Ki in μM, read-out: Ki MM): 26.7 µM; Vmax MM ([2]; BuChE, Exp. 2, inhibitor 2.66 µM, Michaelis-Menten interpolation, no inhibitor 0.249): 0.209; efficiency in inhibiting mBACE-1, CBGA relative to CBDA (mouse BACE-1; ratio of IC50 values): roughly 4 times; NOR index (recognition index) (sAβ-injected mice [9]): 0.183 ± 0.052; fEPSP slope after TBS [5]: 203.21 ± 22.55%; fEPSP amplitude 0–15 min (baseline) [5]: 100.8 ± 0.61%; fEPSP slope 0–15 min (baseline) [5]: 100.94 ± 1.15%; fEPSP amplitude 30–60 min after TBS [5]: 174.34 ± 6.97%; Trpm7 expression in hippocampus (TRPM7 [6]): reverted to the basal level; activity on PPARα/γ (PPARα/γ): dual PPARα/γ agonists; activity on TRPM7 (TRPM7 [7]): inhibitors of TRPM7 |
| CCCC(C)(C)c1ccc2c(c1)OC(C)(C)[C@@H]1CC=C(C)C[C@@H]21 [JWH-133] | – | – | – | – | – | – | – | – | – | – | – | – | – | – | – | – | – | – | – | – | β-arrestin recruitment at CB2 receptor [10]: strong β-arrestin recruitment |
